Key:
hGal-3 protein = hGal-3 protein (Homo sapiens, UniProt P17931); test: Competition STD 1H NMR titration against reference ligand TDG (5); format: binding; settings: for Kd: calculated from IC50 with Kd(ref.) of TDG and Lref 4 mM (Equation 2); for Kd / Relative STD Intensity of H-4 of TDG titrated by competitor: 303 K; for Relative STD Intensity of H-4 of TDG titrated by competitor: 40 μM hGal-3, 4 mM TDG (5); for IC50: competitor concentration for 50% displacement of 4 mM TDG (5), 40 μM hGal-3, exponential fit; for Relative Affinity, Kd (ref.)/Kd (comp.): referenced to TDG (5), times stronger binding than TDG
Sequence of hGal-3 protein (P17931 whole entry): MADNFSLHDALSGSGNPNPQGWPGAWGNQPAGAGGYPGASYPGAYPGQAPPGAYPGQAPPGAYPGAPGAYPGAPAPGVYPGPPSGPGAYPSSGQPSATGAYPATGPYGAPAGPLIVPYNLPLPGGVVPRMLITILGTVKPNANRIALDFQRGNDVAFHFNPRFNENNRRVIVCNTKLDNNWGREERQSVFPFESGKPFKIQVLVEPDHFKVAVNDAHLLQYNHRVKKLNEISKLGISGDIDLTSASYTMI
Description: The competition STD NMR method provides an opportunity to characterize moderately and strongly bound protein–ligand systems (KD = 10^−6 M − 10^−9 M), where the determination is not feasible in direct STD experiment due to kinetic reasons. In the competition experiment, the concentration of the target protein and the reference ligand is kept at a constant level. An STD spectrum of the starting sample state is obtained. Then, by adding the competitive ligand in increasing concentration step-by-step, the resonance signal changes in the STD spectra can be monitored. If the competitor ligand binds strongly to the target protein, a decrease in the STD signal intensities of the reference ligand is observed. If the IC50 value is reached before the equimolar ratio of the reference and the competitor ligand, it can be concluded that the competitor binds more strongly than the selected reference compound to the protein. The strength of the interaction can be quantified by the determination of the dissociation constant value (KD).
By plotting the relative STD ^1H NMR signal intensities of the H-4 proton of the reference compound (5) as a function of the concentration of the given competitor ligand, the IC50 values can be determined (Figure 4). The IC50 value gives the concentration of the competitor ligand required to halve the signal intensity of the reference ligand in the STD spectrum, so it provides the competitor concentration required for 50% displacement of the reference compound (5). IC50 values were calculated based on the equation of the exponential function fitted to the points measured.
The dissociation constant of the interaction was calculated according to the following equation (Equation (1)):(1) Kd(ref.)=Lref×Kd(comp.)/IC50−Kd(comp.)
By rearranging this equation, the Kd value of the competitor ligand (Kd(comp.)) can be obtained (Equation (2)):(2) Kd(comp.)=Kd(ref.)×IC50/Lref+Kd(ref.) where Kd(ref.) refers to the dissociation constant of the reference ligand, Lref is the concentration of the reference ligand, Kd(comp.) is the dissociation constant of the competitor compound, and IC50 is the concentration of the competitor compound at half-signal intensity.

[1] = for Aggregation during the series of STD titration experiments: up to 1:1 reference and competition ligand ratio (4 mM)
Description: We chose the TDG (5), a well-known, moderately bound ligand of hGal-3, as a reference ligand for our competition STD ^1H NMR experiments. As a first step, we recorded an STD ^1H NMR spectrum on the starting sample, which always contained 40 μM hGal-3 protein and 4 mM TDG (1:100 protein reference ligand ratio). Then, the titration was started by adding the synthesized competitor ligand into the NMR sample step-by-step, and we performed STD experiments on each solution composition. […] Thus, the 100% STD effect was determined as the H-4 intensity value of TDG (5) in the initial sample state, and its relative decrease caused by adding the competitor ligand in increasing concentration was measured in each titration step (Table 1).
All ^1H STD NMR experiments were recorded on a Bruker Avance Neo 700 MHz spectrometer equipped with a 5 mm z-gradient (TCI) triple-tuned Prodigy cryoprobe. The measurements were performed at a temperature of 303 K. The data acquisition and processing were performed with TopSpin 3.6.2 and 4.1.1 software. Samples were prepared in 10 mM phosphate buffer solution (140 mM NaCl/KCl, pH = 7.4) in D2O. The initial sample contained 40 μM of hGal-3 protein and 4 mM of compound 5 for each experiment. Competitor ligands were added to the initial samples from stock solutions of different concentrations so that the smallest volume (2 μL) could be added in each titration step. […] The protein resonances were selectively irradiated in competition STD experiments by Eburp (90°) excitation pulses, with a length of 50 ms each with a maximum B1 field strength of 75 Hz yielding a total irradiation time of 3 s. The off-resonance pulse frequency was set to −40 ppm and the on-resonance frequency to 0 ppm. Off- and on-resonance data were recorded at alternate scans, and the corresponding FIDs were collected in separate memories of subsequent processing files, and STD spectra were produced after subtraction of the two subspectra. Competition STD spectra were typically recorded with 1200 repetitions (NS = 8, L4 = 150) to ensure an adequate signal-to-noise ratio for the analysis.

hGal-3 = molecular target: hGal-3; design: method as in PMID 32955737; settings: reference ligand TDG, ITC; cited from earlier work

Compound	Kd (hGal-3 protein)	Relative STD Intensity of H-4 of TDG titrated by competitor (hGal-3 protein; competitor 40 μM)	Relative STD Intensity of H-4 of TDG titrated by competitor (hGal-3 protein; competitor 80 μM)	Relative STD Intensity of H-4 of TDG titrated by competitor (hGal-3 protein; competitor 100 μM)	Relative STD Intensity of H-4 of TDG titrated by competitor (hGal-3 protein; competitor 250 μM)	Relative STD Intensity of H-4 of TDG titrated by competitor (hGal-3 protein; competitor 300 μM)	Relative STD Intensity of H-4 of TDG titrated by competitor (hGal-3 protein; competitor 4000 μM)	IC50 (hGal-3 protein)	Relative Affinity, Kd (ref.)/Kd (comp.) (hGal-3 protein)	Aggregation during the series of STD titration experiments [1]	Relative STD Intensity of H-4 of TDG titrated by competitor (hGal-3 protein; competitor 10 μM)	Relative STD Intensity of H-4 of TDG titrated by competitor (hGal-3 protein; competitor 20 μM)	Relative STD Intensity of H-4 of TDG titrated by competitor (hGal-3 protein; competitor 30 μM)	Relative STD Intensity of H-4 of TDG titrated by competitor (hGal-3 protein; competitor 50 μM)	Relative STD Intensity of H-4 of TDG titrated by competitor (hGal-3 protein; competitor 60 μM)	Solubility ([1]; pH 7.4)	Relative STD Intensity of H-4 of TDG titrated by competitor (hGal-3 protein; competitor 120 μM)	Relative STD Intensity of H-4 of TDG titrated by competitor (hGal-3 protein; competitor 160 μM)	Relative STD Intensity of H-4 of TDG titrated by competitor (hGal-3 protein; competitor 400 μM)	Kd (hGal-3)
OC[C@H]1O[C@@H](S[C@@H]2O[C@H](CO)[C@H](O)[C@H](OCc3ccc4ccccc4n3)[C@H]2O)[C@H](O)[C@@H](OCc2ccc3ccccc3n2)[C@H]1O [Compound 1, Bis-{3-O-[(Quinoline-2-yl)Methyl]-β-D-Galactopyranosyl}-Sulfane]	1.7 µM	78%	65%	61%	33%	24%	0%	134 µM	30	did not observe any aggregation										
OC[C@H]1O[C@@H](S[C@@H]2O[C@H](CO)[C@H](O)[C@H](OCc3ccc4ccccc4c3)[C@H]2O)[C@H](O)[C@@H](OCc2ccc3ccccc3c2)[C@H]1O [Compound 2, Bis-{3-O-[(Naphtalene-2-yl)Methyl]-β-D-Galactopyranosyl}-Sulfane]	0.55 µM	55%		24%				43 µM	94		86%	68%	59%	37%	33%	uncertain				
OC[C@H]1O[C@@H](S[C@@H]2O[C@H](CO)[C@H](O)[C@H](OCc3ccccc3)[C@H]2O)[C@H](O)[C@@H](OCc2ccccc2)[C@H]1O [Compound 3, Bis-(3-O-Benzyl-β-D-Galactopyranosyl)-Sulfane]	2.19 µM	85%	75%		31%		0%	172 µM	24	did not observe any aggregation							64%	50%	28%	
OC[C@H]1O[C@@H](S[C@@H]2O[C@H](CO)[C@H](O)[C@H](O)[C@H]2O)[C@H](O)[C@@H](O)[C@H]1O [Compound 5, Bis-(β-D-Galactopyranosyl)-Sulfane, reference compound]									1											51.4 µM
